{"source": "patent US20080317700A1", "about": "(priority 2006, published 2008)", "key": {"E Coli DH 5α": {"test_system": "E Coli DH 5α", "test": "Liquid culture growth inhibition (optical density), E. Coli", "format": "cell-based", "settings": "for Optical Density at 680 nm, measurements taken after 24 hours of growth: E. Coli, M9 minimum medium, 30 mM herbicide, control 1.30; for Toxicity towards E. Coli (liquid culture): inhibition only during first 10 hours, beyond 24 hours optical density matched controls", "experimental": "Strains of green algae, cyanobacteria and E. Coli were used as test organisms. The green algae CD 1 Red and cyanobacteria Synechocystos 6803 were obtained from the collection of Prof. George Bullerjahn. Salt water strain of cyanobacteria Synechococcus 7002 was obtained from the collection of Prof. Michael McKay. E Coli DH 5α was obtained from Invitrogen Inc.\nE. Coli was propagated heterotrophically in a 2 mL Eppendorf test-tube containing 1.5 mL of liquid M9 minimum medium (see Supporting Information) and kept on a rotating shaker (100 rpm) at 37° C. for 12 hours. The grown culture medium was sterilized at 121° C., 1.05 kg cm^−2 for 20 min. For the cell experiments, 100 mL aliquots of the M9 medium containing the E. Coli cells ([cells]initial=6×10^5 mL^−1) were distributed into sterile 250 mL Erlenmeyer flasks and treated with a stock herbicide solution to obtain a final concentration of 30 mM, followed by an incubation for 24 h on a rotating shaker (100 rpm) at 37° C. […] Control and treated cultures were grown under the same conditions of temperature and shaking. In each experiment, the inhibition of growth in treated cultures was monitored spectrophotometrically and compared to the growth in control samples."}, "E. Coli": {"test_system": "E. Coli", "test": "E. Coli agar experiments (colony count)", "format": "cell-based", "settings": "M9 agar, 1 mM herbicide, 37° C., 24 hours; controls 36 colonies", "experimental": "A M9 minimum medium containing 1.5 wt. % agar was prepared and sterilized at 121° C., 1.05 kg cm^−2 for 20 min. An aliquot of each tested herbicide solution was added to portions of the autoclaved agar to give a 1 mM final concentration of the herbicide. Twenty mL of the liquid agar was poured into a standard Petri dish and allowed to harden at room temperature. E. Coli cell suspensions were inoculated using a sterile inoculation loop and stored at 37° C. for 24 hours. Control and treated cultures were grown under the same conditions. In each experiment, the inhibition of growth in treated cultures was monitored relative to growth in control samples by manually counting the number of colonies."}, "[1]": {"test_system": "cyanobacteria Synechococcus 7002", "format": "cell-based", "settings": "Synechococcus 7002, BG-11 agar, 1 mM herbicide; homopolymer as film cast in Petri dish", "experimental": "(§1) BG-11 medium containing 1.5 wt. % agar was prepared and sterilized at 121° C., 1.05 kg cm^−2 for 20 minutes. Each herbicide tested was prepared as a 30 mM solution and added to the autoclaved agar medium to yield a 1 mM final concentration of the herbicide. A 20 mL aliquot of the liquid agar was transferred into a standard Petri dish (100×15 mm) and allowed to harden at room temperature. Cell suspensions of green algae CD 1 Red, cyanobacteria Synechocystos 6803 and Synechococcus 7002 were inoculated using a sterile inoculation loop. Dishes were stored at 25° C. under illumination with the cool-white fluorescent light having a constant light intensity of 5000 lx. The experiment for each herbicide was repeated five times. Control and treated cultures grew under the same conditions of temperature and photoperiod. In each experiment, the inhibition of growth in treated cultures was monitored relative to the growth in control samples using qualitative visual observation.\n(§2) Additional experiments for testing the toxicity of the homopolymer of AA were implemented. Ten mL of aqueous polymer solution was placed on a sterile Petri dish and left at room temperature until all water was evaporated (3 days) to form a thin polymer film. Twenty mL of the liquid agar was transferred into the Petri dish and allowed to harden at room temperature. Cell suspensions of green algae CD 1 Red, cyanobacteria Synechocystos 6803 and Synechococcus 7002 were inoculated using a sterile inoculation loop. An analogous system containing no polymer film was used as a control for the experiment. Inhibition of growth in treated cultures was monitored relative to the growth in control samples using qualitative visual observations."}, "[2]": {"test_system": "cyanobacteria Synechocystos 6803", "format": "cell-based", "settings": "Synechocystos 6803, BG-11 agar, 1 mM herbicide; homopolymer as film cast in Petri dish", "experimental": "as §1, §2"}, "green algae CD 1 Red": {"test_system": "green algae CD 1 Red", "format": "cell-based", "settings": "BG-11 agar, 1 mM herbicide, homopolymer as film cast in Petri dish", "experimental": "as §1, §2"}, "[3]": {"test_system": "cyanobacteria Synechococcus 7002", "test": "microbe, parasite or virus in culture", "format": "cell-based", "experimental": "After phototrophical propagation during the 5 days under cool fluorescence light (intensity 5000 lux), the average radii of inhibition zones were measured. Water soaked filter paper circles were used as controls. Experiments for each herbicide concentration were repeated 3 times."}, "[4]": {"test_system": "natural freshwater biofouling organisms (periphyton)", "test": "Field trial: periphyton biofouling on coated tiles in artificial stream (chlorophyll extraction)", "settings": "for Extracted chl (periphyton chl biomass) per tile: 459S2 coating with 0.15 M herbicide on ceramic tiles, 10 days in flow channels, bare tiles 11.1±2.87, blank resin 9.35±1.07", "experimental": "Field tests were conducted during July and August, 2006 at the University of Michigan Biological Station Experimental Stream Laboratory located near Douglas Lake, Pellston, Mich. Resin 459S2 containing 0.15 M of a designated herbicide was coated on terracotta ceramic tiles (3×6 inches) pretreated with silanes for improved adhesion and photocured by an H-bulb system obtained from Fusion Inc. The coating thickness was 12.5 μm (0.5 mil). Bare tiles and tiles coated with 459S2 containing no additive were used as controls. Nine tiles for each series were placed into separate flow channels with a constant water flow of 3 L min^−1 for each channel. Each flow channel utilized water pumped from the East Branch of the Maple River containing natural freshwater biofouling organisms. Each flow channel was covered with a mesh screen to reduce direct light exposure and to ensure more favorable growth conditions. Tiles were left in the flow channels for 10 days.\nChlorophyll (chl) biomass attached to the surface of each tile was determined after the tiles had been washed three times with tap water to remove mud and other loosely attached species. The coated surface of the tile was submerged into a plastic vessel containing 25 mL of 90/10 acetone/saturated aqueous MgCl2. The container itself was placed into an ultrasonic bath and the entire system was sonicated for 30 seconds to facilitate chl extraction. The UV-vis spectrum of each extract was measured on a Shimadzu diode-array spectrophotometer using a 1 cm quartz cell. The amount of chl was determined using the following equation:^29\nwhere Aλ1-λ2 is the difference in absorbance at two designated wavelengths and l is the spectroscopic cell pathlength. Two independent field trials were conducted."}, "Solubility (qualitative)": {"test": "Solubility (qualitative)", "format": "physicochemical"}, "[5]": {"settings": "Syn. 7002, herbicide concentration 0.3 mM, 5 days"}, "[6]": {"settings": "Synechococcus, 120 h, read-out: Average radii of the inhibition zones"}}, "note": "Where two headings read alike, the source gives them in different places. Marks after values point to notes of the source that are not given here."}
{"molecule": "C=CC(=O)N(CC(=O)O)CP(=O)(O)O", "note": "[AA, N-Acryloyl-N-(phosphonomethyl)glycine]", "values": [{"measurement": "Optical Density at 680 nm, measurements taken after 24 hours of growth", "setting": "E Coli DH 5α", "value": "1.24^c"}, {"measurement": "Toxicity towards E. Coli (liquid culture)", "setting": "E Coli DH 5α", "value": "do not display reasonable toxicity"}, {"measurement": "Number of E. Coli colonies", "setting": "E. Coli", "value": 6, "unit": "colonies"}, {"measurement": "Growth on agar plates compared to control (visual)", "setting": "[1]", "value": "complete inhibition of growth and bleaching"}, {"measurement": "Growth on agar plates compared to control (visual)", "setting": "[2]", "value": "complete inhibition of growth and bleaching"}, {"measurement": "Growth on agar plates compared to control (visual)", "setting": "green algae CD 1 Red", "value": "complete inhibition of growth and bleaching"}, {"measurement": "Average radii of the inhibition zones", "setting": "[3]; [5]", "value": "No"}, {"measurement": "Average radii of the inhibition zones", "setting": "[3]; Syn. 7002, herbicide concentration 3 mM, 5 days", "value": "No"}, {"measurement": "zone of inhibition at 30000 µM", "setting": "[3]; [6]", "value": 6.5, "unit": "mm"}, {"measurement": "zone of inhibition at 300000 µM", "setting": "[3]; [6]", "value": 15, "unit": "mm"}, {"measurement": "Extracted chl (periphyton chl biomass) per tile", "setting": "[4]", "value": "7.92±1.12", "unit": "μg tile^−1"}, {"measurement": "Periphyton chl relative to tiles containing unfunctionalized glyphosate", "setting": "[4]; 459S2 coating with 0.15 M herbicide, 10 days, unpaired two-tailed t-test, P<0.05", "value": "roughly one-third"}, {"measurement": "Solubility in organic solvents", "setting": "Solubility (qualitative)", "value": "poorly soluble in most organic solvents"}, {"measurement": "Solubility in water", "setting": "Solubility (qualitative)", "value": "soluble in water"}]}
{"molecule": "O=C(O)CNCP(=O)(O)O", "note": "[Glyphosate, N-(Phosphonomethyl)glycine, reference compound]", "values": [{"measurement": "Optical Density at 680 nm, measurements taken after 24 hours of growth", "setting": "E Coli DH 5α", "value": "1.20^c"}, {"measurement": "Toxicity towards E. Coli (liquid culture)", "setting": "E Coli DH 5α", "value": "do not display reasonable toxicity"}, {"measurement": "Number of E. Coli colonies", "setting": "E. Coli", "value": 11, "unit": "colonies"}, {"measurement": "Growth on agar plates compared to control (visual)", "setting": "[1]", "value": "complete inhibition of growth and bleaching"}, {"measurement": "Growth on agar plates compared to control (visual)", "setting": "[2]", "value": "complete inhibition of growth and bleaching"}, {"measurement": "Growth on agar plates compared to control (visual)", "setting": "green algae CD 1 Red", "value": "complete inhibition of growth and bleaching"}, {"measurement": "Average radii of the inhibition zones", "setting": "[3]; [5]", "value": "No"}, {"measurement": "Average radii of the inhibition zones", "setting": "[3]; Syn. 7002, herbicide concentration 300 mM, 5 days", "value": "Complete"}, {"measurement": "zone of inhibition at 3000 µM", "setting": "[3]; Synechococcus, 120 h, Syn. 7002, herbicide concentration 3 mM, 5 days, read-out: Average radii of the inhibition zones", "value": 6, "unit": "mm"}, {"measurement": "zone of inhibition at 30000 µM", "setting": "[3]; Synechococcus, 120 h, Syn. 7002, herbicide concentration 30 mM, 5 days, read-out: Average radii of the inhibition zones", "value": 8, "unit": "mm"}, {"measurement": "Extracted chl (periphyton chl biomass) per tile", "setting": "[4]", "value": "11.9±2.56", "unit": "μg tile^−1"}, {"measurement": "Solubility in organic solvents", "setting": "Solubility (qualitative)", "value": "poor solubility in organic solvents"}]}
